Experimental data as given in US9757596B2, “Composition comprising at least 3 different diols” (AMBRIA DERMATOLOGY AB, priority 2004, dated 2017).

What was measured:
Type in all cases: cell-based
Candida albicans H 29 = assay: Test for bacteriostatic effect (MIC) in agar medium, C. albicans; settings: 10^6 cells/ml, DST agar, 37° C., analysed after 1 and 2 days; combinations: % of each diol
Procedure: (§1) Staphylococcus aureus number 515×6352 and Candida albicans H 29 were obtained from the Collection in the Department of Microbiology, Sahigrenska University Hospital, Gothenburg, Sweden. The isolates were maintained on blood agar at 37° C. M. sympodialis CBS 7222 and M. globosa CBS 7966
(§2) Test for bacteriostatic effect (MIC=minimal inhitory concentration).
(§3) Each of the diols and their combination (1:1:1 volume/volume) was diluted directly with the test culture medium, Diagnostic Sensitivity test agar (DST) (Oxoid, UK) to obtain concentrations, in the test medium, of 2, 3, 4, 6, 9, and 12% volume percent of the respective diol and of 2, 3, and 4% of the respective diol in the combination.
(§4) S. aureus cells were added to the agar medium in concentrations of 10^3 and 10^5 cells/ml while C. albicans cells were added in a concentration of 10^6 cells/ml and M. sympodialis and M. globosa in a concentration of 10^7 cells/ml. Plates were incubated at 37° C. and analysed after 1 and 2 days. Each experiment was repeated. […] The MIC's for propane-1,2-diol, pentane-1,5-diol, 2-methylpentane-2,4-diol and the combination of these 3 diols are shown in the table 1.
Example 3 was performed as example 1.

M. globosa CBS 7966 = assay: Test for bacteriostatic effect (MIC) in agar medium, M. globosa; settings: 10^7 cells/ml, DST agar, 37° C., analysed after 1 and 2 days; combinations: % of each diol
Procedure: as §1, with “Sahigrenska” left out, “7966 Test for bacteriostatic effect (MIC=minimal inhitory concentration). […] Plates were incubated at 37° C. and analysed after 1 and 2 days. Each experiment was repeated.” for “7966”

[1] = tested on: Staphylococcus aureus number 515×6352; assay: Test for bacteriostatic effect (MIC) in agar medium, S. aureus; settings: combinations: % of each diol; for MIC S. aureaus 10^3: 10^3 cells/ml; for MIC S. aureaus 10^3 / MIC S. aureaus 10^5: DST agar, 37° C., analysed after 1 and 2 days; for MIC S. aureaus 10^5: 10^5 cells/ml; for concentration that completely inhibited the growth of S. aureus: cell concentration not specified
Procedure: as §1, §2, §3
as §4, with “1. […]” for “1.”

M. sympodialis CBS 7222 = assay: Test for bacteriostatic effect (MIC) in agar medium, M. sympodialis; settings: 10^7 cells/ml, DST agar, 37° C., analysed after 1 and 2 days; combinations: % of each diol
Procedure: as §1, with “Sahigrenska” left out, “7966 Test for bacteriostatic effect (MIC=minimal inhitory concentration). […] Plates were incubated at 37° C. and analysed after 1 and 2 days. Each experiment was repeated.” for “7966”

| Compound | MIC C. albicans 10^6 (Candida albicans H 29) | MIC M. globosa (M. globosa CBS 7966) | MIC S. aureaus 10^3 [1] | MIC S. aureaus 10^5 [1] | concentration that completely inhibited the growth of S. aureus [1] | MIC M. sympodialis (M. sympodialis CBS 7222) |
| --- | --- | --- | --- | --- | --- | --- |
| CC(O)CC(C)(C)O (stereo not drawn) [2-Methyl pentane-2,4-diol] | 4% | 3% | 12% | 12% | 12% | 3% |
| CC(O)CCO (stereo not drawn) [Butane-1,3-diol] | 8% | 10% | >12% | >12% |  | 10% |
| CCO [Ethanol] | 8% | 10% | >12% | >12% |  | 10% |
| OCCCCCO [Pentane-1,5-diol] | 4% | 3% | 12% | 12% | 12% | 3% |
| CC(O)CO (stereo not drawn) [Propane-1,2-diol] | 9% | 10% | >12% | >12% |  | 10% |
